ChEMBL document CHEMBL1128305, “Metabotropic glutamate receptors: novel targets for drug development” (J Med Chem, 1995)
Several values for one entry are separate records, joined by “and”; a condition that tells them apart may be missing. Equal values may be shown once.

Columns and labels:
[1] = biological target: Metabotropic glutamate receptor 7 (Homo sapiens, UniProt Q14831); experiment: Concentration for half maximal activation of metabotropic glutamate mGluR7 in human
[2] = biological target: Metabotropic glutamate receptor 6 (Rattus norvegicus, UniProt P35349); experiment: Concentration for half maximal activation of metabotropic glutamate mGluR6 in rat
[3] = biological target: Metabotropic glutamate receptor 4 (Rattus norvegicus, UniProt P31423); experiment: Concentration for half maximal activation of metabotropic glutamate mGluR4a in rat
[4] = biological target: Metabotropic glutamate receptor 7 (Rattus norvegicus, UniProt P35400); experiment: Concentration for half maximal activation of metabotropic glutamate mGluR7 in rat
[5] = biological target: Metabotropic glutamate receptor 4 (Homo sapiens, UniProt Q14833); experiment: Concentration for half maximal activation of metabotropic glutamate mGluR4a in human
[6] = biological target: T1, Metabotropic glutamate receptor 5 (Rattus norvegicus, UniProt P31424); experiment: Concentration for half maximal activation of metabotropic glutamate mGluR5a in rat
[7] = biological target: T1, Metabotropic glutamate receptor 5; experiment: Concentration for half maximal activation of metabotropic glutamate mGluR5b in rat
[8] = biological target: Metabotropic glutamate receptor 8 (Mus musculus, UniProt P47743); experiment: Concentration for half maximal activation of metabotropic glutamate mGluR8 in mouse; type: single protein
[9] = biological target: Metabotropic glutamate receptor 3 (Rattus norvegicus, UniProt P31422); experiment: Concentration for half maximal activation of metabotropic glutamate mGluR3 in rat
[10] = biological target: T2, Metabotropic glutamate receptor 1 (Rattus norvegicus, UniProt P23385); experiment: Concentration for half maximal activation of metabotropic glutamate mGluR1a in rat
[11] = biological target: T2, Metabotropic glutamate receptor 1; experiment: Concentration for half maximal activation of metabotropic glutamate mGluR1b in rat
[12] = biological target: T2, Metabotropic glutamate receptor 1; experiment: Concentration for half maximal activation of metabotropic glutamate mGluR1c in rat
[13] = biological target: Metabotropic glutamate receptor 2 (Homo sapiens, UniProt Q14416); experiment: Concentration for half maximal activation of metabotropic glutamate mGluR2 in human
[14] = biological target: Metabotropic glutamate receptor 2 (Rattus norvegicus, UniProt P31421); experiment: Concentration for half maximal activation of metabotropic glutamate mGluR2 in rat
[15] = biological target: Metabotropic glutamate receptor 5 (Homo sapiens, UniProt P41594); experiment: Concentration for half maximal activation of metabotropic glutamate mGluR5a in human

Metabotropic glutamate receptor 2 (Rattus norvegicus, UniProt P31421), sequence (P31421 whole entry): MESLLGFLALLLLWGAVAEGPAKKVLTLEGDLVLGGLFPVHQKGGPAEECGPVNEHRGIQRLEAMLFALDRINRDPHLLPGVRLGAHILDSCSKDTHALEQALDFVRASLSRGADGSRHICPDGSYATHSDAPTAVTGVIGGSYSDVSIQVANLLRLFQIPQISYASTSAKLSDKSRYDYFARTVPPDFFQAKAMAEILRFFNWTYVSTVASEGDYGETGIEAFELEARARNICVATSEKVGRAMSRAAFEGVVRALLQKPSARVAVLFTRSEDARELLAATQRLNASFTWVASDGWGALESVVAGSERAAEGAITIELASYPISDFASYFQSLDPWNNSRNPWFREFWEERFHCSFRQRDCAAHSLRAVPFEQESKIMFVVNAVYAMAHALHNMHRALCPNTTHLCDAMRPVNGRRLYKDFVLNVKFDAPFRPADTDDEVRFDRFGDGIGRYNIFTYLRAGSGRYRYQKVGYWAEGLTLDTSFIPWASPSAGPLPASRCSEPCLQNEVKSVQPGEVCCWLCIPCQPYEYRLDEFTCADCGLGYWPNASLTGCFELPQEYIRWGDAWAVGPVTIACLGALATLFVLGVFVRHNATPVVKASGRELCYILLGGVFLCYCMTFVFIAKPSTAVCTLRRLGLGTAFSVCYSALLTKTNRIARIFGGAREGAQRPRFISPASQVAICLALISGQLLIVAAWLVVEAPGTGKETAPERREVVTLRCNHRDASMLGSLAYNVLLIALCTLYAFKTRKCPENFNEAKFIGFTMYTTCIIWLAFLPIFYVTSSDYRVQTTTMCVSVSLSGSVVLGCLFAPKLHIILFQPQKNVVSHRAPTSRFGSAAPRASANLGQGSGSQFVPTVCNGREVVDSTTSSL
Metabotropic glutamate receptor 2 (Homo sapiens, UniProt Q14416), sequence (Q14416 whole entry): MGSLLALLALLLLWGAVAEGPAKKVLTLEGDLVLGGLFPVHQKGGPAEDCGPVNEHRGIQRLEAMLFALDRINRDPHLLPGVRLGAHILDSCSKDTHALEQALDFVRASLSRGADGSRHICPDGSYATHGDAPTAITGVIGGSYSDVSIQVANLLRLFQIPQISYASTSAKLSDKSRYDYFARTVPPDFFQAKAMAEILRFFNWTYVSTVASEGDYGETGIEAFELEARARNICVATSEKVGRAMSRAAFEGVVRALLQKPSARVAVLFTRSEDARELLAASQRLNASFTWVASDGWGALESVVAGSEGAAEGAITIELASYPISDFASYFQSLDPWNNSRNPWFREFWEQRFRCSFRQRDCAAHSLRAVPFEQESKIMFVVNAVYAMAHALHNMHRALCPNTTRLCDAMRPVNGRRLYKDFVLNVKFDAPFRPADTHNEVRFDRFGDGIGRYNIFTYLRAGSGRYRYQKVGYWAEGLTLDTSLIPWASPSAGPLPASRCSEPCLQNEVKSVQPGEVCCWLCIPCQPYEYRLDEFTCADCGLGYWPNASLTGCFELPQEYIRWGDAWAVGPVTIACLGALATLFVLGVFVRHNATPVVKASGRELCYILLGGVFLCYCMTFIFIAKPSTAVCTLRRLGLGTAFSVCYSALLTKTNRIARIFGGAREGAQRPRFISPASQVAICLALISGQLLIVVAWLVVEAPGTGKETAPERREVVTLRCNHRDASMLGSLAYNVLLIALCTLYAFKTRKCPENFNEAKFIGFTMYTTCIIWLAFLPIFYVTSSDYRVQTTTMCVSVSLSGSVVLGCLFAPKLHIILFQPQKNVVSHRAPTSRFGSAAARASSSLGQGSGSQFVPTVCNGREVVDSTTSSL
Metabotropic glutamate receptor 8, sequence (P47743 whole entry): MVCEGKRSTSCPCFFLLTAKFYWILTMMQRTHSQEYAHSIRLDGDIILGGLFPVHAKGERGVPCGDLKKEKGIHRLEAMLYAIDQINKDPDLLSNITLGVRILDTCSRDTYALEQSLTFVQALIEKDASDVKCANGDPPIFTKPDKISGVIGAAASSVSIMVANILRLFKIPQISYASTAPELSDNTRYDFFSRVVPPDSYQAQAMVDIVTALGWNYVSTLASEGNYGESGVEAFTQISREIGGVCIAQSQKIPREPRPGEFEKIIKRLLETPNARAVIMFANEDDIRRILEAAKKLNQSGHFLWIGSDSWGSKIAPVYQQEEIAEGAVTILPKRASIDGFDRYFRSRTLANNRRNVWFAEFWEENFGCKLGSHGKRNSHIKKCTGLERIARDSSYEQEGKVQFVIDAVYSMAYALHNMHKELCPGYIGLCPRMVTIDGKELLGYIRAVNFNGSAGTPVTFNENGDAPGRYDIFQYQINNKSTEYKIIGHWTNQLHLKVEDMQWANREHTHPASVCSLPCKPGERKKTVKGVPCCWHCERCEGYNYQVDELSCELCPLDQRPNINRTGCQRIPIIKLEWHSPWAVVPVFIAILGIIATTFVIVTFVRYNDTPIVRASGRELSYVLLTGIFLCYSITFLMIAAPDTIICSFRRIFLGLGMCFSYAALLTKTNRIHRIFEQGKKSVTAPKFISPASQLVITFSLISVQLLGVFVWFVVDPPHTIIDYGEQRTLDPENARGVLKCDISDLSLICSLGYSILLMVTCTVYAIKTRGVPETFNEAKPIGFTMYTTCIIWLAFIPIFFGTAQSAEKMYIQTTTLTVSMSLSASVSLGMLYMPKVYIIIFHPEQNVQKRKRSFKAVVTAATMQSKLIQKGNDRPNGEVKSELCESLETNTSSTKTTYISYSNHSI
T2 sequence (P23385 whole entry): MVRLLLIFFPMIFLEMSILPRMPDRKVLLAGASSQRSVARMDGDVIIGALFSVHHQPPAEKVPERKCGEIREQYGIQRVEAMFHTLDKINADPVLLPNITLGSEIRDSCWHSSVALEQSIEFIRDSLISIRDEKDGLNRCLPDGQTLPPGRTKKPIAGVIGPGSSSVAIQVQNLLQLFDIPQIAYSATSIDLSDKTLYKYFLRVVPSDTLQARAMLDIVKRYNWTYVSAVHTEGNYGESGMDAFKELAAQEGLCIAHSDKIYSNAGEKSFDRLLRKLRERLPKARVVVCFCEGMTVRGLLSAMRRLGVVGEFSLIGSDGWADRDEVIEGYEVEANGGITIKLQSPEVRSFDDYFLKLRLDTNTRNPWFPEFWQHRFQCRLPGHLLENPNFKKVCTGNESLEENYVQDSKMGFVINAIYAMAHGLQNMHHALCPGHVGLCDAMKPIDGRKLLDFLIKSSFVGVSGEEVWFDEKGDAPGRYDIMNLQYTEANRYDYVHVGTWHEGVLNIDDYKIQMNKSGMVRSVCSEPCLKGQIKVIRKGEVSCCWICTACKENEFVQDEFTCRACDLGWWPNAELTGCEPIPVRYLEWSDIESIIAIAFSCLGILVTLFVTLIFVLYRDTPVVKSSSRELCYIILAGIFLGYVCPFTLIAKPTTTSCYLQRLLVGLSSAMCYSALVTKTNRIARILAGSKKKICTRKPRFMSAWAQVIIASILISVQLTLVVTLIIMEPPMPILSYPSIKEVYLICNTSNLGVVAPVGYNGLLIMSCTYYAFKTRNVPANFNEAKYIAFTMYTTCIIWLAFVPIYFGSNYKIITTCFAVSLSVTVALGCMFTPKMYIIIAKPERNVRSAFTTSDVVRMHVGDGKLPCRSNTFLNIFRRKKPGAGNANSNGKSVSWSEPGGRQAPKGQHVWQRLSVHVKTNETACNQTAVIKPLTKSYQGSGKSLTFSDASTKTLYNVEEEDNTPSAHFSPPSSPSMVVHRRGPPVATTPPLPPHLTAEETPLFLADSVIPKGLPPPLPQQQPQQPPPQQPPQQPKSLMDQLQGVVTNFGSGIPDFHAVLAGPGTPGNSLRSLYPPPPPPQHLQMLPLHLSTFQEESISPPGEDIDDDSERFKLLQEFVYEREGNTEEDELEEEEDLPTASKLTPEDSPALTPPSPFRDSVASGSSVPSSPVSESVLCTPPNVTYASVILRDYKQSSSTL
T1 sequence (P31424 whole entry): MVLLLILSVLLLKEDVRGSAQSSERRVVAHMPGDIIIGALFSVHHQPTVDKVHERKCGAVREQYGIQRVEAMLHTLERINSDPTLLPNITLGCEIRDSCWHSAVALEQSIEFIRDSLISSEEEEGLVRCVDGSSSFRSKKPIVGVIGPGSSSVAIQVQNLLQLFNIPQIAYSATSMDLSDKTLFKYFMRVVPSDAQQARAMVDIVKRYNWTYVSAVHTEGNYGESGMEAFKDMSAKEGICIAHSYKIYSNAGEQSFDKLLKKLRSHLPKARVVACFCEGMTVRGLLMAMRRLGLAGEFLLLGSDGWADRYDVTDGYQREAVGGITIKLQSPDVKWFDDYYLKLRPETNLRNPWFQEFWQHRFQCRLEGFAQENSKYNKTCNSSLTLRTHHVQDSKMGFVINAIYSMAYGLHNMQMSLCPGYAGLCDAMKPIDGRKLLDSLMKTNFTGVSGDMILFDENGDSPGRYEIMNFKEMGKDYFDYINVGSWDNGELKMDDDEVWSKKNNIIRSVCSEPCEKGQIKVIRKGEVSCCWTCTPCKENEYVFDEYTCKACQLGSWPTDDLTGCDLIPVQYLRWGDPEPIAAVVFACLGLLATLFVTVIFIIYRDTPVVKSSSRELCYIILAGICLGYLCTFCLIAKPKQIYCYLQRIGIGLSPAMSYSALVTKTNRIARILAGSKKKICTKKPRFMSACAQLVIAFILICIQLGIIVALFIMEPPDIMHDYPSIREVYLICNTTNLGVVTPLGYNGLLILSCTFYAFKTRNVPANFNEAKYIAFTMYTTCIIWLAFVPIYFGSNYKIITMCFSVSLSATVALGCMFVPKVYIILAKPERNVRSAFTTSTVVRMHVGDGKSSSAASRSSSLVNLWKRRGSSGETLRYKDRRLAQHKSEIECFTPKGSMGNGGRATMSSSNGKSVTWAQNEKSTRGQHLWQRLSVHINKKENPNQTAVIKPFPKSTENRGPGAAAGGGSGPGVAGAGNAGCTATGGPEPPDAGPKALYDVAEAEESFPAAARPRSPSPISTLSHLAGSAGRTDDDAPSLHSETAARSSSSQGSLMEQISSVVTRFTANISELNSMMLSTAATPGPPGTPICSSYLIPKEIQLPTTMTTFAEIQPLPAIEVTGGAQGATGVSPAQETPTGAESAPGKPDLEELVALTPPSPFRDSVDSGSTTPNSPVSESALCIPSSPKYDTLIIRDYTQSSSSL

SMILES | EC50 [1] | EC50 [2] | EC50 [3] | EC50 [4] | EC50 [5] | EC50 [6] | EC50 [7] | EC50 [8] | EC50 [9] | EC50 [10] | EC50 [11] | EC50 [12] | EC50 [13] | EC50 [14] | EC50 [15]
N[C@@H](COP(=O)(O)O)C(=O)O [DEXFOSFOSERINE] | < 200 µM | 2.7 µM | 4 µM | 160 µM | 1.3 µM | – | – | – | – | – | – | – | – | – | –
N[C@H](C(=O)O)c1cc(=O)[nH]o1 [IBOTENIC ACID] | – | 1000 µM | 590 µM | – | – | 10 µM and 8 µM | 8 µM | > 100 µM | 10 µM | 6 µM | 44 µM | 60 µM | – | – | –
N[C@@H](CCC(=O)O)C(=O)O [GLUTAMIC ACID] | > 500 µM | 16 µM | 5 µM and 3.2 µM | 1000 µM and 1300 µM | – | – | – | 0.022 µM | 3 µM | – | – | – | – | – | –
N[C@@H](CCP(=O)(O)O)C(=O)O | 200 µM | 0.9 µM | 0.5 µM and 1.2 µM | 160 µM and 500 µM | 0.2 µM | – | – | 0.4 µM | – | – | – | > 1000 µM | > 1000 µM | > 1000 µM | –
N[C@H](C(=O)O)[C@H]1C[C@@H]1C(=O)O | – | – | – | – | – | – | – | – | – | – | – | – | 0.38 µM | 0.75 µM | –
N[C@H](C(=O)O)C1[C@@H](C(=O)O)[C@@H]1C(=O)O (stereo partly specified) | – | – | > 1000 µM | – | – | – | – | – | 0.3 µM | > 1000 µM | – | – | – | 0.3 µM | –
N[C@@H](Cn1oc(=O)[nH]c1=O)C(=O)O [QUISQUALATE] | > 1000 µM | 1000 µM | > 100 µM and 129 µM | > 1000 µM | > 500 µM | 0.3 µM and 0.2 µM | 0.2 µM | > 100 µM | 40 µM | – | – | – | > 1000 µM | > 1000 µM | 0.15 µM
N[C@@]1(C(=O)O)CC[C@@H](C(=O)O)C1 | > 1000 µM | > 200 µM | > 100 µM and 39 µM | > 1000 µM | – | 50 µM | – | > 100 µM | 8 µM | – | – | – | 12.1 µM | 5 µM and 7.7 µM | –
